From patent US7183112B2, “Uses for anti-malarial therapeutic agents” (APT Pharmaceuticals, LLC, priority 1999, dated 2007) come the findings set out here.

The subject of this test is Ascaris-sensitized sheep. Description: Airway hyperresponsiveness to carbachol (post/pre challenge PC400 ratio), Example 3. The test is classed as in vivo. The protocol:
Dose Response Curves to Inhaled Carbachol: For the carbachol dose response curves, measurements of SRL were repeated immediately after inhalation of buffer and after each administration of 10 breaths of increasing concentrations of carbachol solution (0.25%, 0.5%, 1.0%, 2.0% and 4.0% w/v). To assess airway responsiveness, the cumulative carbachol dose in breath units (BU) that increased SRL 400% over the post-buffer value (i.e. PC400) was calculated from the dose response curve. One breath unit was defined as one breath of a 1% w/v carbachol solution. The same basic protocol was used for all studies in Example 3. This basic protocol consisted of first obtaining baseline dose response curves to aerosol carbachol 1–3 days prior to antigen challenge. Then, on the day of antigen challenge, values of specific lung resistance (SRL) were measured at baseline and, then, 30 min after drug or vehicle (0.9% saline) treatment. The animals were, then, challenged with Ascaris suum antigen and SRL was remeasured immediately after challenge, hourly from 1–6 h after challenge and on the half-hour from 6 ½–8 h after challenge. Measurements of SRL were obtained 24 h after challenge followed by the 24 h post challenge dose response curve. Studies differed in time of treatment, treatment dose or route of administration. […] A second control challenge was done 2 weeks after the drug trial to insure that the 4 day treatment regimen had no carry-over effect. […] A second control challenge was done 2 weeks after the drug trial to insure that the 4 day treatment regimen had no carry-over effect. […] A second; control challenge was done 2 weeks after the drug trial to insure that the 4 day treatment regimen had no carry-over effect. […] Challenges were separated by 2 weeks. […] On the 15th day, the animals were treated and 30 min later, challenged with antigen. On the following day, after determining the post challenge PC400, the animals resumed treatment for another 14 days, after which, they were challenged with antigen (day 29). The animals were then left untreated for 14 days, after which an antigen challenge was conducted (day 43) and, then, this procedure was repeated after another 2 weeks (day 57). For each series, a repeated measures analysis of variance was performed to see if there were overall differences between the historical control the drug trial and the 2 week follow-up control or, in the case of experiments described in series 4 and 5, amongst the doses and different times, respectively. If a significant overall effect was found, then a two-tailed paired t-test were used to assess pairwise differences. The variables assessed were the peak early airway response (maximum increase in SRL 0–4 h after challenge), peak late airway response (maximum increase in SRL between 5–8 h after antigen challenge, irrespective of when this increase occurred for each sheep in each trial) and on the ratio of post challenge PC400 to pre challenge PC400. (Note: a ratio close to 1 indicates no airway hyperresponsiveness, whereas, a ratio close to 0.5 indicates the development of airway hyperresponsiveness.). Peak responses were used because they are the most conservative estimate of the overall effect. Values in the text and figures are mean±se for 3 sheep.

Structures are written as SMILES.

Turning to `CCN(CCO)CCCC(C)Nc1ccnc2cc(Cl)ccc12` (centres unmarked) [HCQ, hydroxychloroquine], the “effect on airway hyperresponsiveness (AHR)” value (aerosol 1 mg/kg twice a day for 4 days) is on record as “protection”. The “effect on antigen-induced AHR” value is, setting by setting: (aerosol 2 mg/kg once a day for 4 days) “protection”; (chronic treatment, aerosol 2 mg/kg once a day for up to 4 weeks) “protection”; (dose response, aerosol 0.2, 0.6 and 2 mg/kg once a day for 4 days) “protection”; (p.o. 1 mg/kg twice a day for 4 days) “did not protect”.
